The subject of this experiment is influenza virus. The experiment is described as follows: microbe, parasite or virus in culture. The format is cell-based, influenza virus (MDBK or MDCK cells). The settings on record: unidentified influenza virus, 72 h, read-out: CPE EC50, effective concentration to achieve 50% CPE inhibition, 3 days incubation, WST-8. (Formazan colour is commonly taken as a measure of viable cells.)

As to `O=C(O)c1cn2c(c(O)c1=O)C(=O)N(Cc1ccc(F)cc1F)C[C@@H]2C(c1ccccc1)c1ccccc1` [Example 16], the EC50 turned out to be 632 nM.

Consider `CCCN1C[C@H](C(c2ccccc2)c2ccccc2)n2cc(C(=O)O)c(=O)c(O)c2C1=O` [Example 181], for which the EC50 came out at 349 nM.

Take `CC(C)=CCN1C[C@H](C(c2ccccc2)c2ccccc2)n2cc(C(=O)O)c(=O)c(O)c2C1=O` [Example 182]: the EC50 is 562 nM.

With `CC(C)OCCN1C[C@H](C(c2ccccc2)c2ccccc2)n2cc(C(=O)O)c(=O)c(O)c2C1=O` [Example 184], the EC50 amounted to 403 nM.

As for `CCC(C)N1C[C@H](C(c2ccccc2)c2ccccc2)n2cc(C(=O)O)c(=O)c(O)c2C1=O` (some centres unmarked) [Example 186], the EC50 is 159 nM.

As to `CCCC(C)N1C[C@H](C(c2ccccc2)c2ccccc2)n2cc(C(=O)O)c(=O)c(O)c2C1=O` (some centres unmarked) [Example 187], the EC50 was found to be 282 nM.

For `CC(C)N1CN(Cc2ccc(Cl)c(Cl)c2)n2ccc(=O)c(O)c2C1=O` [Example 199], the EC50 was determined as 2720 nM.

Turning to `CC(N1CN(C(c2ccccc2)c2ccccc2Cl)n2ccc(=O)c(O)c2C1=O)C(F)(F)F` (centres unmarked) [Example 242], the EC50 came out at 59 nM.

As for `COCCN1CN(C2c3ccccc3CCc3ccccc32)n2ccc(=O)c(O)c2C1=O` [Example 258], the EC50 worked out at 28 nM.

As to `CC(=O)OCC(C)N1CN(C2c3ccccc3CCc3ccccc32)n2ccc(=O)c(O)c2C1=O` (centres unmarked) [Example 261], the EC50 was 47 nM.

For the compound `O=C1c2c(O)c(=O)ccn2N(C2c3ccccc3CCc3ccccc32)CN1CCF` [Example 262], the EC50 is 38 nM.

Regarding `O=C1c2c(O)c(=O)ccn2N(C2c3ccccc3CCc3ccccc32)CN1CC(F)(F)F` [Example 263], the EC50 is 75 nM.

On to `CC(C)(C)N1CN(C2c3ccccc3CCc3ccccc32)n2ccc(=O)c(O)c2C1=O` [Example 265], for which the EC50 is 36 nM.

As for `COCCCN1CN(C2c3ccccc3CCc3ccccc32)n2ccc(=O)c(O)c2C1=O` [Example 267], the EC50 stood at 63 nM.

As for `CS(=O)(=O)CCN1CN(C2c3ccccc3CCc3ccccc32)n2ccc(=O)c(O)c2C1=O` [Example 269], the EC50 is 417 nM.

Take `Cc1noc(CN2CN(C3c4ccccc4CCc4ccccc43)n3ccc(=O)c(O)c3C2=O)n1` [Example 270]: the EC50 is 129 nM.

For the compound `CC(=O)OCCN1CN(C2c3ccccc3CCc3ccccc32)n2ccc(=O)c(O)c2C1=O` [Example 276], the EC50 was determined as 89 nM.

`CC(C)N1CN(C2c3cc(F)ccc3CCc3ccc(F)cc32)n2ccc(=O)c(O)c2C1=O` [Example 279]: the EC50 is 119 nM.

In the case of `CC(C)N1CN(C2c3ccccc3CCc3c(Cl)cccc32)n2ccc(=O)c(O)c2C1=O` (centres unmarked) [Example 282], the EC50 was 29 nM.

As for `CC(C)N1CN(C2c3ccc(F)cc3CCc3cc(F)ccc32)n2ccc(=O)c(O)c2C1=O` [Example 284], the EC50 was 19 nM.

With `CC(=O)N1CC[C@@H](N2CN(C3c4ccccc4CSc4ccccc43)n3ccc(=O)c(O)c3C2=O)C1` (some centres unmarked) [Example 289], the EC50 came to 419 nM.

For the compound `CN1CCC(CN2CN(C3c4ccccc4CSc4ccccc43)n3ccc(=O)c(O)c3C2=O)CC1` (centres unmarked) [Example 292], the EC50 turned out to be 2230 nM.

On to `O=C1c2c(O)c(=O)ccn2N(C2c3ccccc3CSc3ccccc32)CN1CCOC(F)(F)F` (centres unmarked) [Example 297], for which the EC50 amounted to 33 nM.

Take `O=C1c2c(O)c(=O)ccn2N(C2c3ccccc3CSc3ccccc32)CN1CCCF` (centres unmarked) [Example 298]: the EC50 worked out at 12 nM.

Regarding `CC(C)N1CN(C2c3ccccc3CSc3ccccc32)n2ccc(=O)c(O)c2C1=O` (centres unmarked) [Example 301], the EC50 is 17 nM.

As for `O=C1c2c(O)c(=O)ccn2N(C2c3ccccc3CSc3ccccc32)CN1CC(F)(F)F` (centres unmarked) [Example 306], the EC50 was 21 nM.

Take `CCOCCN1CN(C2c3ccccc3CSc3ccccc32)n2ccc(=O)c(O)c2C1=O` (centres unmarked) [Example 312]: the EC50 worked out at 29 nM.

In the case of `COCC(COC)N1CN(C2c3ccccc3CSc3ccccc32)n2ccc(=O)c(O)c2C1=O` (centres unmarked) [Example 318], the EC50 was 15 nM.

For `CC(=O)OCCN1CN(C2c3ccccc3CSc3ccccc32)n2ccc(=O)c(O)c2C1=O` (centres unmarked) [Example 325], the EC50 was determined as 25 nM.

Turning to `CC(C)N1CN(C2c3ccccc3CSc3ccc(Cl)cc32)n2ccc(=O)c(O)c2C1=O` (centres unmarked) [Example 328], the EC50 turned out to be 168 nM.

As for `COCC(COC)N1CN(C2c3cc(F)ccc3CSc3ccc(F)cc32)n2ccc(=O)c(O)c2C1=O` (centres unmarked) [Example 340], the EC50 came out at 27 nM.

Turning to `CC(N1CN(C2c3ccccc3CSc3c(F)cccc32)n2ccc(=O)c(O)c2C1=O)C(F)(F)F` (centres unmarked) [Example 342], the EC50 worked out at 26 nM.

Take `CC(C)N1CN(C2c3ccccc3CSc3c(F)cccc32)n2ccc(=O)c(O)c2C1=O` (centres unmarked) [Example 351]: the EC50 came out at 19 nM.

On to `CN1CN(C2c3ccccc3CSc3c(F)cccc32)n2ccc(=O)c(O)c2C1=O` (centres unmarked) [Example 354], for which the EC50 was 83 nM.

On to `CC(CO)N1CN(C2c3ccccc3CCc3ccccc32)n2ccc(=O)c(O)c2C1=O` (centres unmarked) [Example 362], for which the EC50 came out at 67 nM.

In the case of `O=C1c2c(O)c(=O)ccn2N(C2c3ccccc3CCc3ccccc32)CN1CC(O)CO` (centres unmarked) [Example 364], the EC50 amounted to 515 nM.

Regarding `CC(C)C[C@H](CO)N1CN(C2c3ccccc3CSc3ccccc32)n2ccc(=O)c(O)c2C1=O` (some centres unmarked) [Example 374], the EC50 came to 154 nM.

For `CC(C)C[C@@H](CO)N1CN(C2c3ccccc3CSc3ccccc32)n2ccc(=O)c(O)c2C1=O` (some centres unmarked) [Example 377], the EC50 is 22 nM.

Take `CC(C)(C)[C@@H](CO)N1CN(C2c3ccccc3CSc3ccccc32)n2ccc(=O)c(O)c2C1=O` (some centres unmarked) [Example 380]: the EC50 was found to be 18 nM.

Regarding `CC(C)(C)[C@H](CO)N1CN(C2c3ccccc3CSc3ccccc32)n2ccc(=O)c(O)c2C1=O` (some centres unmarked) [Example 381], the EC50 turned out to be 34 nM.

As to `O=C1c2c(O)c(=O)ccn2N(C2c3ccccc3CSc3c(Cl)cccc32)CN1CCO` (centres unmarked) [Example 382], the EC50 worked out at 94 nM.

Turning to `CC(C)N1CN(C2c3ccccc3COc3ccccc32)n2ccc(=O)c(O)c2C1=O` (centres unmarked) [Example 391], the EC50 is 71 nM.

Take `COCCN1CN(C2c3ccccc3COc3cc(F)ccc32)n2ccc(=O)c(O)c2C1=O` (centres unmarked) [Example 397]: the EC50 was found to be 77 nM.

Consider `COCCN1CN(C2c3ccccc3COc3ccc(F)cc32)n2ccc(=O)c(O)c2C1=O` (centres unmarked) [Example 401], for which the EC50 is 133 nM.

On to `COCCN1CN(C2c3cc(F)ccc3COc3cc(F)ccc32)n2ccc(=O)c(O)c2C1=O` (centres unmarked) [Example 402], for which the EC50 came to 81 nM.

Consider `CC(N1CN(C2c3ccccc3COc3c(F)cccc32)n2ccc(=O)c(O)c2C1=O)C(F)(F)F` (centres unmarked) [Example 406], for which the EC50 came out at 22 nM.

For the compound `CC(C)N1CN(C2c3ccc(Cl)cc3COc3ccccc32)n2ccc(=O)c(O)c2C1=O` (centres unmarked) [Example 409], the EC50 stood at 29 nM.

For the compound `C[C@@H](N1CN(C2c3ccccc3COc3ccc(F)cc32)n2ccc(=O)c(O)c2C1=O)C(F)(F)F` (some centres unmarked) [Example 410], the EC50 is 14 nM.

For `C[C@@H](N1CN([C@H]2c3ccccc3CSc3ccccc32)n2ccc(=O)c(O)c2C1=O)C(F)(F)F` [Example 413], the EC50 was found to be 5 nM.

Consider `C[C@H](N1CN([C@@H]2c3ccccc3CSc3ccccc32)n2ccc(=O)c(O)c2C1=O)C(F)(F)F` [Example 415], for which the EC50 worked out at 22 nM.

Regarding `C[C@H](N1CN([C@H]2c3ccccc3CSc3ccccc32)n2ccc(=O)c(O)c2C1=O)C(F)(F)F` [Example 416], the EC50 was found to be 19 nM.

As to `C[C@@H](N1CN([C@H]2c3ccccc3COc3c(F)cccc32)n2ccc(=O)c(O)c2C1=O)C(F)(F)F` [Example 425], the EC50 stood at 47 nM.

For the compound `C[C@@H](N1CN([C@H]2c3ccccc3SCc3cccc(Cl)c32)n2ccc(=O)c(O)c2C1=O)C(F)(F)F` [Example 430], the EC50 is 29 nM.

Take `C[C@H](N1CN([C@@H]2c3ccccc3SCc3cccc(Cl)c32)n2ccc(=O)c(O)c2C1=O)C(F)(F)F` [Example 431]: the EC50 was 11 nM.

Consider `C[C@@H](N1CN([C@H]2c3ccc(C(F)(F)F)cc3CSc3ccccc32)n2ccc(=O)c(O)c2C1=O)C(F)(F)F` [Example 432], for which the EC50 was determined as 62 nM.

Turning to `C[C@@H](N1CN([C@@H]2c3cc(Cl)ccc3CSc3ccccc32)n2ccc(=O)c(O)c2C1=O)C(F)(F)F` [Example 443], the EC50 was determined as 4 nM.

With `C[C@@H](N1CN([C@H]2c3ccccc3CSc3c(Cl)cccc32)n2ccc(=O)c(O)c2C1=O)C(F)(F)F` [Example 450], the EC50 is 14 nM.

Take `C[C@H](N1CN([C@H]2c3ccccc3CSc3c(F)cccc32)n2ccc(=O)c(O)c2C1=O)C(F)(F)F` [Example 453]: the EC50 amounted to 49 nM.

As to `C[C@@H](N1CN([C@H]2c3ccccc3CSc3ccc(Cl)cc32)n2ccc(=O)c(O)c2C1=O)C(F)(F)F` [Example 455], the EC50 came to 71 nM.

Take `C[C@@H](N1CN([C@H]2c3ccccc3CSc3cc(F)ccc32)n2ccc(=O)c(O)c2C1=O)C(F)(F)F` [Example 458]: the EC50 was 14 nM.

For the compound `C[C@H](N1CN([C@H]2c3ccccc3CSc3ccc(F)cc32)n2ccc(=O)c(O)c2C1=O)C(F)(F)F` [Example 461], the EC50 was found to be 74 nM.

As to `C[C@@H](N1CN([C@H]2c3cc(F)ccc3CSc3ccc(F)cc32)n2ccc(=O)c(O)c2C1=O)C(F)(F)F` [Example 462], the EC50 is 11 nM.

Consider `C[C@H](N1CN([C@H]2c3ccccc3CSc3ccc(Cl)cc32)n2ccc(=O)c(O)c2C1=O)C(F)(F)F` [Example 475], for which the EC50 was 441 nM.

As to `CC(CN(C)C)N1CN(C2c3ccccc3CCc3ccccc32)n2ccc(=O)c(O)c2C1=O` (centres unmarked) [Example 479], the EC50 amounted to 64 nM.

`CC(CN(C)C)N1CN(C2c3ccccc3CSc3ccccc32)n2ccc(=O)c(O)c2C1=O` (centres unmarked) [Example 480]: the EC50 was determined as 84 nM.

`CC(CN(C)C)N1CN(C2c3ccccc3CSc3c(Cl)cccc32)n2ccc(=O)c(O)c2C1=O` (centres unmarked) [Example 481]: the EC50 is 86 nM.

In the case of `CC(CN1CCOCC1)N1CN(C2c3ccccc3CSc3ccccc32)n2ccc(=O)c(O)c2C1=O` (centres unmarked) [Example 483], the EC50 worked out at 27 nM.

Consider `CC(C)N1CN(C2c3ccccc3CCc3ccccc32)n2cc(C(=O)O)c(=O)c(O)c2C1=O` [Example 491], for which the EC50 turned out to be 99 nM.

The values are drawn from patent US9815835B2, “Substituted polycyclic carbamolypyridone derivative” (priority 2009, dated 2017).
